This is an account of results in patent US20100063085A1, “METHOD OF TREATING LEARNING IMPAIRMENT IN DOWN'S SYNDROME SUBJECTS” (University Court of The University of Dundee, priority 2008, published 2010).

Holding throughout (format): biochemical
In one assay the target is MKK1 (Homo sapiens, UniProt Q02750). Description: MKK1 33P kinase assay. Conditions: read-out: MKK1 activity as percentage of control without inhibitor. As for the experimental part:
(§1) All assays (25.5 μl) were carried out at room temperature (21° C.) and were linear with respect to time and enzyme concentrations under the conditions used. Assays were performed for 30 minutes except assays for LCK and PKB which were performed for 15 minutes using Multidrop Micro reagent dispensers (Thermo Electron Corporation, Waltham, Mass. 02454, USA) in a 96-well format. The concentration of […] [γ-^33P] ATP (800 cpm/pmol) in the assays was one of three concentrations (5, 20 or 50 μM) in order to be at or below Km for ATP for the enzyme. Assays were initiated with MgATP and stopped by addition of 5 μl of 0.5M orthophosphoric acid. Assays were then harvested onto P81 filterplates using a unifilter harvester (PerkinElmer, Boston, Mass. 02118, USA), with a wash buffer of 50 mM orthophosphoric acid. Filterplates were then air dried overnight. 10 μl of Microscint O was added per well prior to counting for radioactivity.
(§2) MKK1, JNK/SAPK1c, SAPK2a/p38, SAPK2b/p38β2, SAPK3/p38γ, SAPK4/p38δ, MAPK2/ERK2, MAPKAP-K1β, MAPKAP-K2, MSK1, PRAK, PKA, PKCα, PDK1, SGK, p70S6K, GSK3β, ROCK-II, PRK2, AMPK, CHK1, CHK2, CK2, PHK, LCK, were assayed according to Davies et al., (Davies, S. P., Reddy, H., Caivano, M. and Cohen, P. Biochem. J. 351, 95-105, 2000.
(§3) CSK and CDK2/cyclinA, were assayed according to Bain et al. (Bain J, McLauchlan H, Elliott M, Cohen P. Biochem J. 371, 199-204, 2003., except that ATP concentrations were either 5, 20 or 50 micromolar so that they were at or below the Km for ATP. The ATP concentrations used were as follows, 5 μM for assays of MKK1, SAPK3, SAPK4, GSK3β, PRK2 CK2 20 μm for assays of JNK, SAPK2β, MAPKAP-K2, MSK1, PRAK, PKA, […], PDK1, SGK, p70S6K, ROCK-II, CHK1, CHK2, CSK, CDK2, and 50 μM for assays of SAPK2a, MAPK2/ERK2, AMPK, LCK, PHK and MAPKAP-K1β.

Another assay concerns the target JNK3 (Homo sapiens, UniProt P53779). The assay can be described thus: JNK3 33P kinase assay. Conditions: read-out: JNK3 activity as percentage of control without inhibitor. As for the experimental part: as §1
(§4) The following kinases were assayed against the substrates indicated. Aurora B was assayed against the substrate peptide […] (300 μM), ERK8 and MST-2 were both assayed against MBP (0.33 mg/ml). IKKβ was assayed against the substrate peptide […] (300 μM), JNK3 was assayed against 3 μM ATF2[19-96]. MAPKAP-K3 and PKD1 were both assayed against […] (30 μM), MARK3 was assayed against CHKtide ([…]) substrate peptide (300 μM). MNK1 and MNK2 were both assayed against eIF4E protein (0.5 mg/ml). NEK7 was assayed against […] (300 μM), PIM2 was assayed against […] (300 μM), ΔPH PKBβ-S474D was assayed against Crosstide (30 μM), PLK1 was assayed against […] (300 μM). PRK2 was assayed against Long S6 peptide, […] (30 μM), RSK2 was assayed against […] (30 μM), SRC was assayed against cdc2 peptide, […], (300 μM) and SRPK1 was assayed against peptide […] (300 μM). All enzymes were diluted in 50 mM Tris/HCl pH 7.5, 0.1 mM EGTA, 1 mg/ml BSA, 0.1% β-mercaptoethanol buffer and assayed in an incubation containing 50 mM Tris/HCl pH7.5, 0.1 mM EGTA, 0.1% β-mercaptoethanol, CAMK-1 (5-20 mU) diluted in 50 mM Tris/HCl pH 7.5, 0.1 mM EGTA, 1 mg/ml BSA, 0.1% β-mercaptoethanol is assayed against substrate peptide […] in an incubation containing 50 mM Tris/HCl pH 7.5, 0.1 mM EGTA, 0.5 mM CaCl2, 0.3 μM calmodulin, 0.1% β-mereaptoethanol, 300 μM substrate peptide, 10 mM magnesium acetate and 0.05 mM [^33P-γ-ATP] (500-1000 cpm/pmole). EF2K (5-20 mU) diluted in 50 mM Hepes pH 6.6, 0.1% β-mercaptoethanol, 1 mg/ml BSA is assayed against a substrate peptide […] in an incubation containing 50 mM Hepes pH 6.6, 0.2 mM CaCl2, 0.3 μM Calmodulin, 0.05% b-mercaptoethanol, 300 μM substrate peptide, 10 mM magnesium acetate and 0.05 mM [^33P-γ-ATP] (500-1000 cpm/pmole).

A further assay deals with T1, PRAK (Homo sapiens, UniProt Q8IW41).
T1 sequence (Q8IW41 1-473): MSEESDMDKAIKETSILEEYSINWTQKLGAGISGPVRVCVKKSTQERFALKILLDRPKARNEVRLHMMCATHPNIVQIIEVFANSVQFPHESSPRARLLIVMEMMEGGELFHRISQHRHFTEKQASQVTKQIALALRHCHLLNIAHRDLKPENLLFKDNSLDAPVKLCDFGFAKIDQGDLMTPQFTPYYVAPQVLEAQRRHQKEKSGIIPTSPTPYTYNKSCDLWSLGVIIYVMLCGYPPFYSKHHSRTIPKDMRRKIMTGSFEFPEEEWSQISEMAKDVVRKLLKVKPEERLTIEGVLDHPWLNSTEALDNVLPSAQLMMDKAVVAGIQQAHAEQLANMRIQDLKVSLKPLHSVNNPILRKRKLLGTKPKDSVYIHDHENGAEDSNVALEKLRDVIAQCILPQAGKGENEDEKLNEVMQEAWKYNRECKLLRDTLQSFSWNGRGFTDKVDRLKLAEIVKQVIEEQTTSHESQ
Description: PRAK 33P kinase assay. Conditions: read-out: PRAK activity as percentage of control without inhibitor; for remaining activity at 1 µM: inhibitor 1 μM; for remaining activity at 10 µM: inhibitor 10 μM. The method, then: as §1, §2, §3

A further assay has as its system PKBΔph. The assay can be described thus: PKBΔph 33P kinase assay. The method, then:
as §1

The target of the next assay is ROCK-II (Homo sapiens, UniProt O75116). The assay can be described thus: ROCK-II 33P kinase assay. Conditions: read-out: ROCK-II activity as percentage of control without inhibitor. The method, then:
as §1, §2, §3

The target in a further assay is PIM2 (Homo sapiens, UniProt Q9P1W9). The assay can be described thus: PIM2 33P kinase assay. Conditions: read-out: PIM2 activity as percentage of control without inhibitor. The method, then: as §1, §4
Sequence of PIM2 (Q9P1W9 whole entry, species assumed): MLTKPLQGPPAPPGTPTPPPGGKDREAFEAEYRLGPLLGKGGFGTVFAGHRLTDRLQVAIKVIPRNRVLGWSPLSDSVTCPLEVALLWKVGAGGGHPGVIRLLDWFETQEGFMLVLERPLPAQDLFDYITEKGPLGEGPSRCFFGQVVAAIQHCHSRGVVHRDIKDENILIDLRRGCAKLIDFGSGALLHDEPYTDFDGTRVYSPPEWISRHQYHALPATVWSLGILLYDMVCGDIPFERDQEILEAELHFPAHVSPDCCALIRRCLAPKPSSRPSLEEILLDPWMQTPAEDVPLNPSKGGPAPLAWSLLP

Like-named read-outs stand apart in the source and are kept apart here.

Sequence of JNK3 (P53779 whole entry, species assumed): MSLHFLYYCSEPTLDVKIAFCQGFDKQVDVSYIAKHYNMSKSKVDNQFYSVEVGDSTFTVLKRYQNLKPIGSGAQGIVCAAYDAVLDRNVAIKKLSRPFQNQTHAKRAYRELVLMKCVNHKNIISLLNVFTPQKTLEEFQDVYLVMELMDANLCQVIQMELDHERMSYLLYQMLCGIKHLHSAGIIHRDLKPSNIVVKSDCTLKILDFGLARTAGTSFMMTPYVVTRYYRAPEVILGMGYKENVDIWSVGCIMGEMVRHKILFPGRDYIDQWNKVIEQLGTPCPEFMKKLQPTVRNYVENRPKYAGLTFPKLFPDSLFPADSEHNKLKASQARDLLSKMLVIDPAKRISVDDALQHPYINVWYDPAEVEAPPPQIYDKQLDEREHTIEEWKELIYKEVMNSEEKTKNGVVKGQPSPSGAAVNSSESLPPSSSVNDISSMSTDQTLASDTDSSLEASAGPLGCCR
Sequence of MKK1 (Q02750 whole entry, species assumed): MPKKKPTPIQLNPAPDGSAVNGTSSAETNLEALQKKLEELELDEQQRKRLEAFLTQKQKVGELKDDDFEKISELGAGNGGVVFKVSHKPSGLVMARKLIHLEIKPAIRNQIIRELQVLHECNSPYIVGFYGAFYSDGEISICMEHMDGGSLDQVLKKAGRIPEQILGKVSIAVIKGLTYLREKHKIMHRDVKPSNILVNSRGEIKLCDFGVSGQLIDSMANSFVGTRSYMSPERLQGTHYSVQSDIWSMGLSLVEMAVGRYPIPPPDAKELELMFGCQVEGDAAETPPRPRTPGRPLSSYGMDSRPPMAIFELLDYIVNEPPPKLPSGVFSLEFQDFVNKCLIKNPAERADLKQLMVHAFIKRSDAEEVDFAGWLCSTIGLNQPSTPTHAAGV
Sequence of ROCK-II (O75116 whole entry, species assumed): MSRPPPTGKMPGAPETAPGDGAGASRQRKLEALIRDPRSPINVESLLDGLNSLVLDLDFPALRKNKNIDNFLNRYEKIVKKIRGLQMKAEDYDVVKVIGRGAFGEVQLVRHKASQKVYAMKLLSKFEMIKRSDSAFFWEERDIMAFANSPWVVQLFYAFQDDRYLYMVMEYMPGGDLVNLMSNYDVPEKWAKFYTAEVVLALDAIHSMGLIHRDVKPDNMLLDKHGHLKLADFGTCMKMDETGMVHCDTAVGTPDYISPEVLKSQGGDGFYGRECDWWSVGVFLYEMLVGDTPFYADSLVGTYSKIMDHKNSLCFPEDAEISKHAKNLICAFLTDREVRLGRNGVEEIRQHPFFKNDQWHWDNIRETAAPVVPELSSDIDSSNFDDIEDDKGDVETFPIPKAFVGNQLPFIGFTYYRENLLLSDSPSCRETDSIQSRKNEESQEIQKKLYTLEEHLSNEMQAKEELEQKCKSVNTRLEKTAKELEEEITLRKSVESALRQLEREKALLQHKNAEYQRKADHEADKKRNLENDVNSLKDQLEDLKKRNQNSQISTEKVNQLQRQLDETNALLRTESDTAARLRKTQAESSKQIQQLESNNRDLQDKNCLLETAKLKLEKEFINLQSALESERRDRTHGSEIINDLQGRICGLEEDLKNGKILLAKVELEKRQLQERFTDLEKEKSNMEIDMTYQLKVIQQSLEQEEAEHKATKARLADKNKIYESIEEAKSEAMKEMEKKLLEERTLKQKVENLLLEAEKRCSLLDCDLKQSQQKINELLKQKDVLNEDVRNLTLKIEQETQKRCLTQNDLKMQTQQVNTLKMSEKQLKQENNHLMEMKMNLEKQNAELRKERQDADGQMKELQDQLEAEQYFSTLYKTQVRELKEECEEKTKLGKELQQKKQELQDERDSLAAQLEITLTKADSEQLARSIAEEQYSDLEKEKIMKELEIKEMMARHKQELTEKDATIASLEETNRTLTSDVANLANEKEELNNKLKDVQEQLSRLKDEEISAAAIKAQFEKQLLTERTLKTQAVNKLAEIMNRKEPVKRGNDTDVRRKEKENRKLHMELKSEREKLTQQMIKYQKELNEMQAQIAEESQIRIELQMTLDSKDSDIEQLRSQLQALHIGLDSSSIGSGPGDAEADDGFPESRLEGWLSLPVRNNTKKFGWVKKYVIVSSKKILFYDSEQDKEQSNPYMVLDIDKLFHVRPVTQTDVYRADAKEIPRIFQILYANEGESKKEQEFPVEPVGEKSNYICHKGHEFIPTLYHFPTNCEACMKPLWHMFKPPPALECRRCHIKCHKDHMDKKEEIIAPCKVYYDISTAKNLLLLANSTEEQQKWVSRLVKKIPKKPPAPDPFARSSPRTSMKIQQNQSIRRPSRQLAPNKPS

As to `COc1ccc2c3c([nH]c2c1)C(C)=NCC3` [Harmaline], the remaining activity at 1 µM on MKK1 (inhibitor 1 μM) turned out to be 47%; at JNK3, 87%; on PRAK, 88%; at ROCK-II (inhibitor 1 μM), 99%; on PIM2 (inhibitor 1 μM), 86%. For the same compound, the remaining activity at 10 µM on MKK1 (inhibitor 10 μM) is 39%; at JNK3 it was 81%; at PRAK, 93%; at ROCK-II (inhibitor 10 μM) it was 81%; at PIM2 (inhibitor 10 μM) it was 101%. Moreover, the “PKBΔph activity as percentage of control without inhibitor” value stood at 80% in the assay with PKBΔph (inhibitor 1 μM) and 98% with PKBΔph (inhibitor 10 μM).

As to `CC1=NCCc2c1[nH]c1cc(O)ccc21` [Harmalol], the remaining activity at 1 µM on MKK1 (inhibitor 1 μM) came out at 92%; on JNK3 (inhibitor 1 μM) it was 92%; on PRAK, 84%; at ROCK-II (inhibitor 1 μM), 96%; at PIM2 (inhibitor 1 μM), 90%. The remaining activity at 10 µM came to 66% on MKK1 (inhibitor 10 μM); 94% at JNK3 (inhibitor 10 μM); 78% on PRAK; 81% on ROCK-II (inhibitor 10 μM); 57% on PIM2 (inhibitor 10 μM). For the same compound, the “PKBΔph activity as percentage of control without inhibitor” value in the assay on PKBΔph (inhibitor 1 μM) was determined as 92%; in the assay on PKBΔph (inhibitor 10 μM), 58%.

In the case of `COc1ccc2c(c1)[nH]c1c(C)nccc12` [Harmine], the remaining activity at 1 µM amounted to 76% at MKK1; 89% on JNK3; 81% at PRAK; 84% on ROCK-II; 77% at PIM2. The remaining activity at 10 µM on MKK1 is 73%; on JNK3 it was 83%; at PRAK, 75%; at ROCK-II, 61%; on PIM2, 41%. Besides, the “PKBΔph activity as percentage of control without inhibitor” value with PKBΔph (inhibitor 1 μM) and in the assay on PKBΔph (inhibitor 10 μM) was 107% throughout.
